{"source": "ChEMBL document CHEMBL5257035", "about": "“Nucleoside Derived Antibiotics to Fight Microbial Drug Resistance: New Utilities for an Established Class of Drugs?” (J Med Chem, 2016)", "key": {"[1]": {"test_system": "Pseudomonas aeruginosa", "assay": "Antibacterial activity against Pseudomonas aeruginosa assessed as inhibition of bacterial growth incubated for 24 hrs by broth microdilution method", "format": "functional"}, "[2]": {"test_system": "Mycolicibacterium smegmatis", "assay": "Antimycobacterial activity against Mycobacterium smegmatis assessed as microbial growth inhibition", "format": "functional"}, "[3]": {"test_system": "Streptococcus pneumoniae", "assay": "Antibacterial activity against Streptococcus pneumoniae B1 assessed as bacterial growth inhibition", "format": "functional"}, "[4]": {"assay": "Inhibition of Bacterial MraY", "design": "species or system Bacteria"}, "[5]": {"assay": "Inhibition of Escherichia coli RNA polymerase"}, "[6]": {"test_system": "Mycobacterium tuberculosis", "assay": "Antibacterial activity against Mycobacterium tuberculosis ATCC 27294 assessed as reduction in bacterial growth by LORA method", "format": "functional"}, "[7]": {"test_system": "Mycobacterium tuberculosis", "assay": "Antimycobacterial activity against Mycobacterium tuberculosis K4 assessed as reduction in bacterial activity", "format": "functional"}, "[8]": {"test_system": "Mycobacterium avium", "assay": "Antimycobacterial activity against Mycobacterium avium ATCC 25291 assessed as reduction in microbial growth", "format": "functional"}, "[9]": {"test_system": "Pseudomonas aeruginosa", "assay": "Antimicrobial activity against Pseudomonas aeruginosa ATCC 15692 assessed as microbial inhibition", "format": "functional, organism-based"}, "[10]": {"test_system": "Enterococcus faecalis", "assay": "Antimicrobial activity against Enterococcus faecalis ATCC 29212 assessed as microbial growth inhibition", "format": "functional, organism-based"}, "[11]": {"test_system": "Pseudomonas aeruginosa", "assay": "Antibacterial activity against Pseudomonas aeruginosa ATCC 15442 assessed as bacterial growth inhibition measured after 48 hrs by micro-broth dilution method", "format": "functional"}, "[12]": {"molecular_target": "Glutamine--tRNA ligase (Escherichia coli (strain K12), UniProt P00962)", "sequence (P00962 whole entry)": "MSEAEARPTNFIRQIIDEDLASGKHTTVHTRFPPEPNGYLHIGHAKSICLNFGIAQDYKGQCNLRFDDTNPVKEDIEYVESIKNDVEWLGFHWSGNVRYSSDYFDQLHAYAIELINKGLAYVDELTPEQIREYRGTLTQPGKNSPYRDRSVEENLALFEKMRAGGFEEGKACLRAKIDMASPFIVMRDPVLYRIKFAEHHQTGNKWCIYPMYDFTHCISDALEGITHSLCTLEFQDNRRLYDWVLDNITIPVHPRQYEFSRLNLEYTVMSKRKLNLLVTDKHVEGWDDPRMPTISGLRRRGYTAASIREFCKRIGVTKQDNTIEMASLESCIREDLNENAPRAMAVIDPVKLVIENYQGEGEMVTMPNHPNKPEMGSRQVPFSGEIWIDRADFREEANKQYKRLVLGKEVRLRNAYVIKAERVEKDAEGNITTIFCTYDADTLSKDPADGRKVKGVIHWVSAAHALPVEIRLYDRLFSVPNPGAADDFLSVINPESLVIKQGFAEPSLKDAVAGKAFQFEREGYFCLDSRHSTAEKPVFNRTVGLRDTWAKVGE", "assay": "Binding affinity to Escherichia coli K12 glutaminyl-tRNA synthetase assessed as inhibition constant"}, "[13]": {"test_system": "Klebsiella pneumoniae", "assay": "Antibacterial activity against Klebsiella pneumoniae assessed as bacterial growth inhibition", "format": "functional"}, "[14]": {"assay": "Inhibition of GMP synthase (unknown origin)", "design": "species or system Homo sapiens"}, "[15]": {"test_system": "Escherichia coli", "assay": "Antibacterial activity against Escherichia coli K12 assessed as bacterial growth inhibition measured after 24 hrs by micro broth dilution method", "format": "functional"}, "[16]": {"test_system": "Bacillus cereus", "assay": "Antibacterial activity against Bacillus cereus ATCC 11778 assessed as bacterial growth inhibition", "format": "functional"}, "[17]": {"assay": "Binding affinity to Escherichia coli methionyl adenylate synthetase"}, "[18]": {"molecular_target": "Methionine--tRNA ligase (Escherichia coli K-12, UniProt P00959)", "sequence (P00959 whole entry)": "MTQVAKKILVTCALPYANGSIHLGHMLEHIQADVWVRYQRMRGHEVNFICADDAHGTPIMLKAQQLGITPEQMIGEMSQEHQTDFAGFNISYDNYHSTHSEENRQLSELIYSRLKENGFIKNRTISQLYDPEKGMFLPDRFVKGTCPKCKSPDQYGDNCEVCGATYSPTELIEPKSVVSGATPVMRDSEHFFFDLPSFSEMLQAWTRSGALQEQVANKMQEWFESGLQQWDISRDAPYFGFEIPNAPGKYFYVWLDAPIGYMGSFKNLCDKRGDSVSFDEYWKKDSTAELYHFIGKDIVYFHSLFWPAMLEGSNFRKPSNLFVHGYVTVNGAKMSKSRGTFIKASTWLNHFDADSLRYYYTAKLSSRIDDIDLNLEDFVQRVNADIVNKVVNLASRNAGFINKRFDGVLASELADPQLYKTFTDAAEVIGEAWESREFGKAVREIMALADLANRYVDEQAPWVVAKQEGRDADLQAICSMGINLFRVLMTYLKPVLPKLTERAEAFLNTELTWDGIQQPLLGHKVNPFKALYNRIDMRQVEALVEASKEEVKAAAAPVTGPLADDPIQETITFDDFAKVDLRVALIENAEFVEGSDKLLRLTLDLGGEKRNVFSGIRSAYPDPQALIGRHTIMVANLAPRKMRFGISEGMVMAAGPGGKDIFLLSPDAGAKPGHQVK", "assay": "Inhibition of Escherichia coli K12 methionyl tRNA synthetase"}}, "data": [{"smiles": "C[C@H](NC(=O)N[C@@H](Cc1cccc(Cl)c1)C(=O)O)C(=O)N[C@H](C(=O)N/C=C1/C[C@@H](O)[C@H](n2ccc(=O)[nH]c2=O)O1)[C@H](C)NC(=O)[C@@H](N)Cc1ccc(O)cc1", "values": [{"measurement": "MIC", "setting": "[1]", "result": 64, "unit": "µg/mL"}]}, {"smiles": "CO[C@H]1[C@@H](O)[C@H](n2ccc(=O)[nH]c2=O)O[C@@H]1[C@@H](O[C@@H]1OC(C(=O)N[C@H]2CCCCNC2=O)=C[C@@H](O)[C@H]1O)C(N)=O", "values": [{"measurement": "MIC", "setting": "[2]", "result": 3, "unit": "µg/mL"}, {"measurement": "MIC", "setting": "[3]", "result": 12.5, "unit": "µg/mL"}, {"measurement": "Ki", "setting": "[4]", "result": 10, "unit": "ng/mL"}, {"measurement": "IC50", "setting": "[5]", "result": 100, "unit": "nM"}, {"measurement": "MIC", "setting": "[6]", "result": 100, "unit": "µg/mL"}]}, {"smiles": "CN1C[C@H](O)[C@@H](C(=O)O)N(C)C(=O)[C@@H]1[C@H](O[C@@H]1O[C@H](CN)[C@@H](O)[C@H]1O)[C@H]1O[C@@H](n2ccc(=O)[nH]c2=O)[C@H](O)[C@@H]1O", "note": "[CAPRAZOL]", "values": [{"measurement": "MIC", "setting": "[7]", "result": 3.13, "unit": "µg/mL"}]}, {"smiles": "CCCCCCCCCC[C@H](CC(=O)O[C@H]1CN(C)[C@@H]([C@@H](O[C@@H]2O[C@H](CN)[C@@H](O)[C@H]2O)[C@H]2O[C@@H](n3ccc(=O)[nH]c3=O)[C@H](O)[C@@H]2O)C(=O)N(C)[C@@H]1C(=O)O)OC(=O)C[C@H](C)CC(=O)O", "values": [{"measurement": "MIC", "setting": "[8]", "result": 1.2, "unit": "µg/mL"}]}, {"smiles": "CCCC(C)CC(C)CC(C)/C=C(C)/C=C/C(O)C(C)C(=O)OC1C(O)CN2CC1NC[C@H]1O[C@@H](OC([C@H]3O[C@@H](n4ccc(=O)[nH]c4=O)[C@H](O)[C@@H]3OS(=O)(=O)O)C2C(=O)O)[C@H](O)[C@@H]1O", "note": "(stereo partly drawn)", "values": [{"measurement": "IC50", "setting": "[9]", "result": 0.065, "unit": "µg/mL"}, {"measurement": "IC50", "setting": "[10]", "result": 0.012, "unit": "µg/mL"}]}, {"smiles": "C[C@H](N)C(=O)N(C)C[C@H](NC(=O)[C@H](C)NC(=O)N[C@@H](Cc1c[nH]c2ccccc12)C(=O)O)C(=O)NCC1C[C@@H](O)[C@H](n2ccc(=O)[nH]c2=O)O1", "note": "(stereo partly drawn)", "values": [{"measurement": "MIC", "setting": "[11]", "result": 64, "unit": "µg/mL"}]}, {"smiles": "NC(=O)CCC(N)COP(=O)(O)OC[C@H]1O[C@@H](n2cnc3c(N)ncnc32)[C@H](O)[C@@H]1O", "note": "(stereo partly drawn)", "values": [{"measurement": "Ki", "setting": "[12]", "result": 280, "unit": "nM"}]}, {"smiles": "Cc1cn([C@H]2C[C@H](N=[N+]=[N-])[C@@H](COC(=O)C(=O)N[C@@H](CC(C)C)C(=O)O)O2)c(=O)[nH]c1=O", "values": [{"measurement": "MIC", "setting": "[13]", "result": 0.125, "unit": "µg/mL"}]}, {"smiles": "NC(=O)c1ncn([C@@H]2O[C@H](CO)[C@@H](O)[C@H]2O)c1O", "note": "[MIZORIBINE]", "values": [{"measurement": "Ki", "setting": "[14]", "result": 100, "unit": "µM"}]}, {"smiles": "CSCC[C@H](N)C(=O)OC[C@H]1O[C@@H](n2cnc3c(N)ncnc32)[C@H](O)[C@@H]1O", "values": [{"measurement": "MIC", "setting": "[15]", "result": 0.5, "unit": "µg/mL"}, {"measurement": "MIC", "setting": "[16]", "result": 32, "unit": "µg/mL"}, {"measurement": "Ki", "setting": "[17]", "result": 10.9, "unit": "µM"}]}, {"smiles": "CCC(C)C(N)C(=O)NS(=O)(=O)OC[C@H]1O[C@@H](n2cnc3c(N)nc(I)nc32)[C@H](O)[C@@H]1O", "note": "(stereo partly drawn)", "values": [{"measurement": "IC50", "setting": "[18]", "result": 14, "unit": "nM"}]}]}
